# Results as given in patent US20180298010A1, “PRMT5 INHIBITORS AND USES THEREOF” (Epizyme, Inc., priority 2012, published 2018).
# Target: T1, PRMT5/MEP50 (Homo sapiens, UniProt O14744)
# T1 construct: Flag-PRMT5; 6His-MEP50
# Experiment: PRMT5 Biochemical Assay (PRMT5/MEP50 enzyme assay on peptide substrate, 3H-SAM Flashplate)
# Method in brief: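 FLAG-PRMT5/His-MEP50 from Sf9 cells (4 nM) preincubated 30 min at 25 °C with compound in 20 mM Bicine pH 7.6, 1 mM TCEP, 1% DMSO. Reaction started with 75 nM 3H-SAM on 40 nM biotinylated H4 1-15 peptide, stopped with cold SAM. Bound 3H-peptide counted on streptavidin Flashplates, normalised to DMSO and 100 uM SAH controls.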
# T1 sequence (O14744 with tags, fused parts or gaps): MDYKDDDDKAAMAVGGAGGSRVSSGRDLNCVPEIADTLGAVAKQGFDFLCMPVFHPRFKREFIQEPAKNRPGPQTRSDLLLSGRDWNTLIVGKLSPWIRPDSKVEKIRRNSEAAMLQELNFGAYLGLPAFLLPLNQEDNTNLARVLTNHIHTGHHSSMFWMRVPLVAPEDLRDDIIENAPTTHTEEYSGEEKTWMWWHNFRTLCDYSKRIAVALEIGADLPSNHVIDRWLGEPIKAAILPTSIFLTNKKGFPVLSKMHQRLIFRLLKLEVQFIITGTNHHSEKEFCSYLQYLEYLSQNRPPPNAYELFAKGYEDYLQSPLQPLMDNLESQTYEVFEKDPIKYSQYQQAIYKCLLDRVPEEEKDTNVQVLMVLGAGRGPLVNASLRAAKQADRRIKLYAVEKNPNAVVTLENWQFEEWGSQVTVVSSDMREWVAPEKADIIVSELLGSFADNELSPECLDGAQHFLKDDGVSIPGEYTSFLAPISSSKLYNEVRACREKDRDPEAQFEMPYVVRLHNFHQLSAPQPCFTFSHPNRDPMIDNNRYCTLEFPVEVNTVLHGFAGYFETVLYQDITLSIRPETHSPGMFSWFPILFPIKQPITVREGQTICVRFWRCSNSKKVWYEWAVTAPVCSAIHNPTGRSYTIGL
# T1 sequence (Q9BQA1 with tags, fused parts or gaps partner): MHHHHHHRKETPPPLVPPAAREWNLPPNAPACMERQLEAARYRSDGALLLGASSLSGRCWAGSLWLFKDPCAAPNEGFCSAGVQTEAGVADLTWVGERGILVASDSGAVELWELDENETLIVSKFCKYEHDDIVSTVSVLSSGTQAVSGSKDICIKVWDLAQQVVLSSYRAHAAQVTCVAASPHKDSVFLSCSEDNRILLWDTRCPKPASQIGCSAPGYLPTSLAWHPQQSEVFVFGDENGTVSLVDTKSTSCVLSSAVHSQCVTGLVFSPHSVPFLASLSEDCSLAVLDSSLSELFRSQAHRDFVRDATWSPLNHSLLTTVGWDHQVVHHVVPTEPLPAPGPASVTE
row,SMILES,IC50
1,COc1ccc(-c2cccc(OCC(O)CN3CCc4ccccc4C3)c2)cc1Cl (centres unmarked) [Compound 168],101 to 1000 nM
2,CC(=O)Nc1cccc(-c2cccc(OCC(O)CN3CCc4ccccc4C3)c2)c1 (centres unmarked) [Compound 169],101 to 1000 nM
3,OC(COc1cccc(-c2csc3ccccc23)c1)CN1CCc2ccccc2C1 (centres unmarked) [Compound 170],101 to 1000 nM
4,NC(=O)c1cccc(-c2cccc(OCC(O)CN3CCc4ccccc4C3)c2)c1 (centres unmarked) [Compound 171],101 to 1000 nM
5,N#Cc1cccc(-c2cccc(OCC(O)CN3CCc4ccccc4C3)c2)c1 (centres unmarked) [Compound 172],101 to 1000 nM
6,OC(COC1CCN(c2ccccc2)C1)CN1CCc2ccccc2C1 (centres unmarked) [Compound 175],1000 to 10000 nM
7,COc1ccc2c(c1)CN(CC(O)COc1cccc(-c3ccc4ncn(C)c4c3)c1)CC2 (centres unmarked) [Compound 177],10000 to 40000 nM
8,CNC(=O)c1cncc(-c2cccc(OCC(O)CN3CCc4ccccc4C3)c2)c1 (centres unmarked) [Compound 182],1000 to 10000 nM
9,Cn1cnc(C(=O)Nc2cccc(OCC(O)CN3CCc4ccccc4C3)c2)c1 (centres unmarked) [Compound 183],1000 to 10000 nM
10,O=C(c1cccc(-c2cccc(OCC(O)CN3CCc4ccccc4C3)c2)c1)N1CCCC1 (centres unmarked) [Compound 185],101 to 1000 nM
11,CNC(=O)c1cccc(-c2cccc(OCC(O)CN3CCc4ccccc4C3)c2)c1 (centres unmarked) [Compound 186],101 to 1000 nM
12,OC(COc1cccc(-c2ccc3ncoc3c2)c1)CN1CCc2ccccc2C1 (centres unmarked) [Compound 188],101 to 1000 nM
13,OC(COc1cccc(N2CCc3[nH]nc(-c4ccccc4)c3C2)c1)CN1CCc2ccccc2C1 (centres unmarked) [Compound 194],1000 to 10000 nM
14,Cn1cncc1C(=O)Nc1cccc(OCC(O)CN2CCc3ccccc3C2)c1 (centres unmarked) [Compound 195],1000 to 10000 nM
15,CN(C(=O)c1cn(C)cn1)c1cccc(OCC(O)CN2CCc3ccccc3C2)c1 (centres unmarked) [Compound 197],1000 to 10000 nM
16,CN(C(=O)c1cocn1)c1cccc(OCC(O)CN2CCc3ccccc3C2)c1 (centres unmarked) [Compound 198],10000 to 40000 nM
17,CC(C)Oc1ccc(F)c(-c2cccc(OCC(O)CN3CCc4ccccc4C3)c2)c1 (centres unmarked) [Compound 201],101 to 1000 nM
18,Cn1ncc2ccc(-c3cc(NCC(O)CN4CCc5ccccc5C4)ncn3)cc21 (centres unmarked) [Compound 205],101 to 1000 nM
19,CNC(=O)Cn1ccc2cnc(-c3cccc(OCC(O)CN4CCc5ccccc5C4)c3)nc21 (centres unmarked) [Compound 206],1000 to 10000 nM
20,Cn1cnc2ccc(-c3cc(NCC(O)CN4CCc5ccccc5C4)ncn3)cc21 (centres unmarked) [Compound 207],101 to 1000 nM
21,Cn1cnc2ccc(-c3cccc(OCC(O)CN4CCc5ccc(Cl)cc5C4)c3)cc21 (centres unmarked) [Compound 214],1000 to 10000 nM
22,Cn1cnc2ccc(-c3cccc(OCC(O)CN4CCc5c(Cl)cccc5C4)c3)cc21 (centres unmarked) [Compound 215],1000 to 10000 nM
23,"Cn1ncc2c1CN(c1cccc(OCC(O)CN3CCc4ccccc4C3)c1)CC2 (centres unmarked) [Compound 216, 1-(3,4-dihydroisoquinolin-2(1H)-yl)-3-(3-(1-methyl-4,5-dihydro-1H-pyrazolo[3,4-c]pyridin-6(7H)-yl)phenoxy)propan-2-ol]",101 to 1000 nM

row,SMILES,IC50
1,Cn1cnc2ccc(-c3cc(NCC(O)CN4CCc5ccccc5C4)ccn3)cc21 (centres unmarked) [Compound 217],101 to 1000 nM
2,O=C(Cn1ccc2cnc(-c3cccc(OCC(O)CN4CCc5ccccc5C4)c3)nc21)N1CCOCC1 (centres unmarked) [Compound 222],101 to 1000 nM
3,Cn1cc2ccc(-c3cc(NCC(O)CN4CCc5ccccc5C4)ncn3)cc2n1 (centres unmarked) [Compound 224],101 to 1000 nM
4,O=C(Cn1ccc2cnc(-c3cccc(OCC(O)CN4CCc5ccccc5C4)c3)nc21)N1CCCCC1 (centres unmarked) [Compound 232],101 to 1000 nM
5,CN1CCN(C(=O)Cn2ccc3cnc(-c4cccc(OCC(O)CN5CCc6ccccc6C5)c4)nc32)CC1 (centres unmarked) [Compound 244],101 to 1000 nM
6,O=C(Cn1cnc2ccc(-c3cccc(OCC(O)CN4CCc5ccccc5C4)c3)cc21)N1CCCCC1 (centres unmarked) [Compound 249],101 to 1000 nM
7,O=C(Nc1ccccn1)c1cccc(OCC(O)CN2CCc3ccccc3C2)c1 (centres unmarked) [Compound 267],101 to 1000 nM
8,O=C(Nc1cccnc1)c1cccc(OCC(O)CN2CCc3ccccc3C2)c1 (centres unmarked) [Compound 268],1000 to 10000 nM
9,CN1CCN(C(=O)Cn2cnc3ccc(-c4cccc(OCC(O)CN5CCc6ccccc6C5)c4)cc32)CC1 (centres unmarked) [Compound 270],101 to 1000 nM
10,"Cn1cnc2ccc(-c3cc(NCC(O)CN4CCc5ccccc5C4)n[nH]3)cc21 (centres unmarked) [Compound 271, 1-(3,4-dihydroisoquinolin-2(1H)-yl)-3-((5-(1-methyl-1H-benzo[d]imidazol-6-yl)-1H-pyrazol-3-yl)amino)propan-2-ol]",101 to 1000 nM
11,OC(COCc1c(Cl)cccc1Cl)CN1CCc2ccccc2C1 (centres unmarked) [Compound 280],1000 to 10000 nM
12,OC(COCc1ccc(Cl)cc1Cl)CN1CCc2ccccc2C1 (centres unmarked) [Compound 281],1000 to 10000 nM
13,OC(COCc1ccccn1)CN1CCc2ccccc2C1 (centres unmarked) [Compound 282],10000 to 40000 nM
14,OC(COc1ccc2c(c1)OCO2)CN1CCc2ccccc2C1 (centres unmarked) [Compound 285],1000 to 10000 nM
15,CCCCNCc1cccc(COCC(O)CN2CCc3ccccc3C2)c1 (centres unmarked) [Compound 286],101 to 1000 nM
16,CC(C)(C)OC(=O)N1CCCC(OCC(O)CN2CCc3ccccc3C2)C1 (centres unmarked) [Compound 291],1000 to 10000 nM
17,CC(C)(C)OC(=O)N1CCC(OCC(O)CN2CCc3ccccc3C2)CC1 (centres unmarked) [Compound 292],1000 to 10000 nM
18,OC(COCC1CCCCC1)CN1CCc2ccccc2C1 (centres unmarked) [Compound 294],1000 to 10000 nM
19,OC(COCC1COc2ccccc2O1)CN1CCc2ccccc2C1 (centres unmarked) [Compound 300],101 to 1000 nM
20,OC(COC1CCCC1)CN1CCc2ccccc2C1 (centres unmarked) [Compound 302],1000 to 10000 nM
21,OC(COCC1CC1)CN1CCc2ccccc2C1 (centres unmarked) [Compound 303],1000 to 10000 nM
22,OC(COCC1CCCO1)CN1CCc2ccccc2C1 (centres unmarked) [Compound 305],10000 to 40000 nM
23,OC(COCc1ccccc1)CN1CCc2ccccc2C1 (centres unmarked) [Compound 308],10000 to 40000 nM

# More lines, now with the values ahead:
row,IC50,SMILES
1,101 to 1000 nM,CCC1c2ccccc2CCN1CC(O)COc1cccc(-c2ccc3ncn(C)c3c2)c1 (centres unmarked) [Compound 179]
2,1000 to 10000 nM,O=C(c1cncc(-c2cccc(OCC(O)CN3CCc4ccccc4C3)c2)c1)N1CCCC1 (centres unmarked) [Compound 181]
3,1000 to 10000 nM,O=C(Nc1cccc(OCC(O)CN2CCc3ccccc3C2)c1)c1ccnnc1 (centres unmarked) [Compound 184]
4,101 to 1000 nM,Cc1cn(C)c2cc(-c3cccc(OCC(O)CN4CCc5ccccc5C4)c3)ccc12 (centres unmarked) [Compound 187]
5,1000 to 10000 nM,OC(COc1cccc(-c2ccncc2F)c1)CN1CCc2ccccc2C1 (centres unmarked) [Compound 190]
6,101 to 1000 nM,Cn1cnc2cnc(-c3cccc(OCC(O)CN4CCc5ccccc5C4)c3)nc21 (centres unmarked) [Compound 191]
7,1000 to 10000 nM,Cc1cccc2c1CN(CC(O)COc1cccc(-c3ccc4ncn(C)c4c3)c1)CC2 (centres unmarked) [Compound 192]
8,1000 to 10000 nM,CN(C(=O)c1cnco1)c1cccc(OCC(O)CN2CCc3ccccc3C2)c1 (centres unmarked) [Compound 196]
9,101 to 1000 nM,OC(COc1cccc(-c2cc(OC(F)(F)F)ccc2Cl)c1)CN1CCc2ccccc2C1 (centres unmarked) [Compound 200]
10,1000 to 10000 nM,CN(C(=O)c1cncn1C)c1cccc(OCC(O)CN2CCc3ccccc3C2)c1 (centres unmarked) [Compound 203]
11,1000 to 10000 nM,CN(C(=O)c1cccnc1)c1cccc(OCC(O)CN2CCc3ccccc3C2)c1 (centres unmarked) [Compound 204]
12,1000 to 10000 nM,Cn1cnc2ccc(-c3cccc(OCC(O)CN4CCc5ccccc5C4(C)C)c3)cc21 (centres unmarked) [Compound 211]
13,1000 to 10000 nM,Cc1ccc2c(c1)CN(CC(O)COc1cccc(-c3ccc4ncn(C)c4c3)c1)CC2 (centres unmarked) [Compound 212]
14,1000 to 10000 nM,Cc1cccc2c1CCN(CC(O)COc1cccc(-c3ccc4ncn(C)c4c3)c1)C2 (centres unmarked) [Compound 213]
15,101 to 1000 nM,"CC(=O)N1CCC(n2cnc3ccc(-c4cccc(OCC(O)CN5CCc6ccccc6C5)c4)cc32)CC1 (centres unmarked) [Compound 228, 1-(4-(6-(3-(3-(3,4-dihydroisoquinolin-2(1H)-yl)-2-hydroxypropoxy)phenyl)-1H-benzo[d]imidazol-1-yl)piperidin-1-yl)ethanone]"
16,101 to 1000 nM,O=C(Cn1ccc2cnc(-c3cccc(OCC(O)CN4CCc5ccccc5C4)c3)nc21)N1CCCC1 (centres unmarked) [Compound 231]

row,IC50,SMILES
1,101 to 1000 nM,Cn1ccc2ccc(-c3cc(NCC(O)CN4CCc5ccccc5C4)ncn3)cc21 (centres unmarked) [Compound 237]
2,101 to 1000 nM,CC(=O)N1CCC(n2cnc3ccc(-c4ccnc(NCC(O)CN5CCc6ccccc6C5)c4)cc32)CC1 (centres unmarked) [Compound 242]
3,101 to 1000 nM,CC(=O)N1CCC(n2cnc3cnc(-c4cccc(OCC(O)CN5CCc6ccccc6C5)c4)nc32)CC1 (centres unmarked) [Compound 243]
4,101 to 1000 nM,"Cn1ncc2cnc(-c3cccc(OCC(O)CN4CCc5ccccc5C4)c3)cc21 (centres unmarked) [Compound 248, 1-(3,4-dihydroisoquinolin-2(1H)-yl)-3-(3-(1-methyl-1H-pyrazolo[4,3-c]pyridin-6-yl)phenoxy)propan-2-ol]"
5,101 to 1000 nM,O=C(Cn1cnc2ccc(-c3cccc(OCC(O)CN4CCc5ccccc5C4)c3)cc21)N1CCCC1 (centres unmarked) [Compound 263]
6,101 to 1000 nM,"Cn1cnc2cc(-c3cc(NCC(O)CN4CCc5ccccc5C4)n[nH]3)ccc21 (centres unmarked) [Compound 272, 1-(3,4-dihydroisoquinolin-2(1H)-yl)-3-((5-(1-methyl-1H-benzo[d]imidazol-5-yl)-1H-pyrazol-3-yl)amino)propan-2-ol]"
7,1000 to 10000 nM,O=C(Nc1cc[nH]n1)c1cccc(OCC(O)CN2CCc3ccccc3C2)c1 (centres unmarked) [Compound 274]
8,1000 to 10000 nM,COc1c(COCC(O)CN2CCc3ccccc3C2)ccc2ccccc12 (centres unmarked) [Compound 279]
9,10000 to 40000 nM,OC(COCc1cccnc1)CN1CCc2ccccc2C1 (centres unmarked) [Compound 283]
10,10000 to 40000 nM,OC(COCc1ccncc1)CN1CCc2ccccc2C1 (centres unmarked) [Compound 284]
11,1000 to 10000 nM,CC(C)(C)OC(=O)N1CCC(OCC(O)CN2CCc3ccccc3C2)C1 (centres unmarked) [Compound 287]
12,1000 to 10000 nM,COc1cccc(COCC(O)CN2CCc3ccccc3C2)c1 (centres unmarked) [Compound 288]
13,1000 to 10000 nM,CC(C)(C)OC(=O)N1CC(OCC(O)CN2CCc3ccccc3C2)C1 (centres unmarked) [Compound 290]
14,10000 to 40000 nM,CC(OCC(O)CN1CCc2ccccc2C1)c1cccnc1 (centres unmarked) [Compound 299]
15,1000 to 10000 nM,OC(COC1Cc2ccccc2C1)CN1CCc2ccccc2C1 (centres unmarked) [Compound 301]
